# In US11034717B2, “Farnesoid X receptor modulators” (Intercept Pharmaceuticals, Inc., priority 2015, dated 2021):
# Where two headings read alike, the source gives them in different places.
# Tests used:
# HepG2 cells [1] = test: In-vitro cytotoxicity, ATP content; format: cell-based; details: Table 5B, HepG2
# Excerpt: To evaluate in-vitro cytotoxicity of a compound of the invention, two different assay methods are employed. The assays evaluate cell viability by measuring ATP levels and cytotoxicity by measuring LDH release. […] It has been called the “molecular unit of currency” when it comes to intracellular energy transfer.
# (§1) An additional method to determine the viability of cells is to detect the integrity of the membrane that defines the cellular compartmentalization. Measuring the leakage of components out of the cytoplasm, in damaged cell membranes, indicates loss of membrane integrity, and LDH release is the method used to determine common toxicity in cells. HepG2 cells are treated with a compound of the invention, and serial dilutions are performed. LCA dilutions are added to the plated cells as assay controls together with no-cell and untreated cells. The assay is performed in triplicate for each test compound concentration.
# [2] = In-vitro cytotoxicity, membrane integrity (LDH release); format: cell-based; details: human; HepG2; read-out: Membrane Integrity (LDH measure) LC50
# Excerpt: (§2) To evaluate in-vitro cytotoxicity of a compound of the invention, two different assay methods are employed. The assays evaluate cell viability by measuring ATP levels and cytotoxicity by measuring LDH release. Adenosine Triphosphate (ATP) nucleotide represents the source of energy at the basic molecular level, as it is a multifunctional molecule that is used in every cell as a coenzyme and is an integral part of the mitochondrial DNA (Kangas, et al., Medical Biology, 1984, 62, 338-343; Crouch, et al., J Immunol. Methods, 1993, 160, 81-88; and Petty, et al., J Biolumin. Chemilumin. 1995, 10, 29-34). It has been called the “molecular unit of currency” when it comes to intracellular energy transfer.
# as §1
# hTGR5 [3] = target: T1, hTGR5 (Homo sapiens (Human), UniProt Q8TDU6); test: HTR-FRET intracellular cAMP assay in NCI-H716 cells; format: cell-based; details: Table 2
# T1 sequence (Q8TDU6 whole entry): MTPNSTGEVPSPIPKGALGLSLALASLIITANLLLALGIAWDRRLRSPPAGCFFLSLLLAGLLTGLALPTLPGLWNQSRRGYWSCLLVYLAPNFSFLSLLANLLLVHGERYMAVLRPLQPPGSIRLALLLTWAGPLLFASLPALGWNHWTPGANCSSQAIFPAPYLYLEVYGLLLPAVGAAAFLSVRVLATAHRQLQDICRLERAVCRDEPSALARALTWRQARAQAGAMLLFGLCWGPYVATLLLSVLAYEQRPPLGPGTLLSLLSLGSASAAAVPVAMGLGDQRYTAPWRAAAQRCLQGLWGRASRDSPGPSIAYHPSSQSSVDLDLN
# hTGR5 [4] = target: T1, hTGR5; test: Cross species TGR5 activity, CHO cells, human; format: cell-based
# mTGR5 = mTGR5 (Mus musculus (Mouse), UniProt Q80SS6); test: Cross species TGR5 activity, CHO cells, mouse; format: cell-based
# mTGR5, sequence (Q80SS6 whole entry): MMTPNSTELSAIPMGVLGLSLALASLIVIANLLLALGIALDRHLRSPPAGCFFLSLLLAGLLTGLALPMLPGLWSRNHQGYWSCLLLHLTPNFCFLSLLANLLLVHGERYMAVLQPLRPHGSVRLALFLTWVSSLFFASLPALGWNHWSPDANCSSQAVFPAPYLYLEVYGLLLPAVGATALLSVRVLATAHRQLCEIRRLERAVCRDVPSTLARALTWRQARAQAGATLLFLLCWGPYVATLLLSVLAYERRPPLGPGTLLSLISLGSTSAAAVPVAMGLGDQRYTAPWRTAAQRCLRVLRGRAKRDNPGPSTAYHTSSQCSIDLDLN
# rTGR5 = rTGR5 (Rattus norvegicus (Rat), UniProt Q80T02); test: Cross species TGR5 activity, CHO cells, rat; format: cell-based
# rTGR5, sequence (Q80T02 whole entry): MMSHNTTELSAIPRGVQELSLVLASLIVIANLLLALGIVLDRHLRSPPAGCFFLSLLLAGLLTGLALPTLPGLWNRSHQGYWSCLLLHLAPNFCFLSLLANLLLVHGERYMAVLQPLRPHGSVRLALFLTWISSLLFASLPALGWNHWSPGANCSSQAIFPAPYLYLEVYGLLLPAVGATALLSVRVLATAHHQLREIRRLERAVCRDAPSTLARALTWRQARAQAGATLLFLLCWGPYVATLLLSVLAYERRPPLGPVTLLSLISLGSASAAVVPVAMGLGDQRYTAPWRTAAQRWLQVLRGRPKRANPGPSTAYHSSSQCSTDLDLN
# dTGR5 = test: Cross species TGR5 activity, CHO cells, dog; format: cell-based
# [5] = test system: nuclear receptors LXRP, PXR, CAR, PPARα, PPARγ, RAR, RARα, VDR, TR, PR, RXR, GR, and ER; test: Nuclear receptor selectivity profile (AlphaScreen); format: biochemical
# Protocol: Using the AlphaScreen assay, the selectivity of a compound of the invention against the following nuclear receptors involved in the metabolic pathways can be evaluated: LXRP, PXR, CAR, PPARα, PPARα, PPARγ, RAR, RARα, VDR, TR, PR, RXR, GR, and ER.
# Compounds L1, 3, 5, 6 and 7 were tested against the panel of available nuclear receptor in both agonist and antagonist mode.
# [6] = test system: FXR target genes: BSEP, SHP, OSTβ and CYP7A1; test: FXR target gene panel, quantitative RT-PCR in HepG2 cells; format: cell-based; details: stimulation for 18 hours
# Protocol: To evaluate the capacity of a compound of the invention to modulate FXR target genes, quantitative RT-PCR assays are performed. HepG2 cells are selected as a relevant cell line to determine whether a compound of the invention can regulate the endogenous FXR genetic network. The ability of a compound of the invention to induce FXR target genes is assessed by isolating total RNA from cells treated overnight with 1 μM of compounds A, B, and a compound of the invention.
# FXR regulates the expression of several target genes involved in BA homeostasis. Briefly, FXR plays a central role in several metabolic pathways, including i.e., lipid metabolism, bile-acids metabolism, and carbohydrate metabolism. Regarding gene expression profiling, the genes encoding proteins involved in lipid metabolism include, e.g., APOCII, APOE, APOAI, SREBP-1C, VLDL-R, PLTP, and LPL; the genes encoding proteins involved in bile-acids metabolism include, e.g., OSTα/β, BSEP, MRP2, SHP, CYP7A1, FGF19, SULT2A1, and UGT2B4; and the genes encoding proteins involved in carbohydrate metabolism include, e.g., PGCla, PEPCK, and GLUT2. FXR target genes: BSEP, SHP, OSTβ and CYP7A1 were evaluated following stimulation of Compounds 3, 5, 6, and 7 on HepG2 cells for 18 hours. Compound L1 was used as a control.
# HepG2 cells [7] = test: In-vitro cytotoxicity, membrane integrity (LDH release); format: cell-based
# Excerpt: as §2, §1
# CYP1A2 = CYP1A2 (Homo sapiens (Human), UniProt P05177); test: CYP450 inhibition, fluorescent substrate, recombinant baculosomes; format: in vitro ADME
# CYP1A2, sequence (P05177 whole entry, canonical isoform): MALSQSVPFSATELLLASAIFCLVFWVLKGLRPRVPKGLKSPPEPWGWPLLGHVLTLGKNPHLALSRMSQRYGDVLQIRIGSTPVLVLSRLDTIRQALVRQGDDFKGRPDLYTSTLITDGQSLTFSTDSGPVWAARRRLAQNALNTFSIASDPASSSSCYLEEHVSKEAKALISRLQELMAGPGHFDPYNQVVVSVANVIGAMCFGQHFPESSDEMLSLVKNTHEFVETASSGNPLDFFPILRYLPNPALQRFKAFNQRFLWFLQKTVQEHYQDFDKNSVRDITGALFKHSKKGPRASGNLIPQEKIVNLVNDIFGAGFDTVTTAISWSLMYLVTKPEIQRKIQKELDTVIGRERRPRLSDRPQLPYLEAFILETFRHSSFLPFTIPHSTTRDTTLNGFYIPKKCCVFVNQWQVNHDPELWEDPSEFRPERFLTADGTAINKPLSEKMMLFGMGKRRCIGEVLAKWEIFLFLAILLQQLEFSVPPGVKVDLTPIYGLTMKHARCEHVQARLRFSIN
# Protocol: (§3) To evaluate the potential of a compound of the invention for drug-drug interactions, the six main CYP450 isoforms (CYP1A2, CYP2C9, CYP2C19, CYP2D6, CYP2E1, CYP3A4) are investigated (Obach, et al., J Pharmacol. Exp. Ther, 2006, 316, 336-348).
# (§4) To determine interaction between a compound of the invention and cytochrome P450 enzymes, the compound of the invention is analyzed by its capacity to inhibit (or not) the production of a fluorescent signal, using recombinant CYP450 proteins (baculosomes; Invitrogen), substrates and inhibitors (Bidstrup, et al., Br J Clin. Pharmacol, 2003, 56, 305-14). As a positive control, a selective inhibitor for each CYP450 isoform is tested in the same plate.
# CYP2C19 = CYP2C19 (Homo sapiens (Human), UniProt P33261); test: as above; format: in vitro ADME; details: read-out: CYP2C19 IC50
# CYP2C19, sequence (P33261 whole entry): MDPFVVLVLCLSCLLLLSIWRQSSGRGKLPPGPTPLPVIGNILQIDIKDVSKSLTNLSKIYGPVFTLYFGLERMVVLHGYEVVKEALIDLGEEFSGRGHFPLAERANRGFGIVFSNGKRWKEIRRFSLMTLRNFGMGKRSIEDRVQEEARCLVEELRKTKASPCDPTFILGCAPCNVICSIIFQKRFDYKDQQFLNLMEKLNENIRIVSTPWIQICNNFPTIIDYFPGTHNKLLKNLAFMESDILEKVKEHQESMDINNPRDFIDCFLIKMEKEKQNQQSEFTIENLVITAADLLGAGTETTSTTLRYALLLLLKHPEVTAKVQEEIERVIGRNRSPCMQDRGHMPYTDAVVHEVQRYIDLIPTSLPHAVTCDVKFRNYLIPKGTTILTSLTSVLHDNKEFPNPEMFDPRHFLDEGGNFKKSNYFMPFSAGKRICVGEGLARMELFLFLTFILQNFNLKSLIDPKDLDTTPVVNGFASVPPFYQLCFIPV
# Protocol: as §3, §4
# CYP2C9 = CYP2C9 (Homo sapiens (Human), UniProt P11712); test: as above; format: in vitro ADME; details: read-out: CYP2C9 IC50
# Protocol: as §3, §4
# CYP2D6 = CYP2D6 (Homo sapiens (Human), UniProt P10635); test: as above; format: in vitro ADME; details: read-out: CYP2D6 IC50
# CYP2D6, sequence (P10635 whole entry): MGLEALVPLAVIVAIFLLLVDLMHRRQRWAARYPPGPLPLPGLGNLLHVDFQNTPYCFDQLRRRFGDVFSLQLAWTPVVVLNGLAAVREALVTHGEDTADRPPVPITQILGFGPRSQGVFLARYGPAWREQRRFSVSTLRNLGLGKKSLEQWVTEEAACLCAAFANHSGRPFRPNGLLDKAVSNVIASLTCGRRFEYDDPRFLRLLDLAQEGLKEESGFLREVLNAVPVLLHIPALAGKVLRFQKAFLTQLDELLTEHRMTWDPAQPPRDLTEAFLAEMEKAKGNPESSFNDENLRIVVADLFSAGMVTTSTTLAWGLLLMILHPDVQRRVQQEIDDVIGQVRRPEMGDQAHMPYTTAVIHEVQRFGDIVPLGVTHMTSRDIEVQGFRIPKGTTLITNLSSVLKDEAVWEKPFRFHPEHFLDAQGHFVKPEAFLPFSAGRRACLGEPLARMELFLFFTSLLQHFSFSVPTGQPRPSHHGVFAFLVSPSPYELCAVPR
# Protocol: as §3, §4
# CYP2E1 = CYP2E1 (Homo sapiens (Human), UniProt P05181); test: as above; format: in vitro ADME; details: read-out: CYP2E1 IC50
# CYP2E1, sequence (P05181 whole entry): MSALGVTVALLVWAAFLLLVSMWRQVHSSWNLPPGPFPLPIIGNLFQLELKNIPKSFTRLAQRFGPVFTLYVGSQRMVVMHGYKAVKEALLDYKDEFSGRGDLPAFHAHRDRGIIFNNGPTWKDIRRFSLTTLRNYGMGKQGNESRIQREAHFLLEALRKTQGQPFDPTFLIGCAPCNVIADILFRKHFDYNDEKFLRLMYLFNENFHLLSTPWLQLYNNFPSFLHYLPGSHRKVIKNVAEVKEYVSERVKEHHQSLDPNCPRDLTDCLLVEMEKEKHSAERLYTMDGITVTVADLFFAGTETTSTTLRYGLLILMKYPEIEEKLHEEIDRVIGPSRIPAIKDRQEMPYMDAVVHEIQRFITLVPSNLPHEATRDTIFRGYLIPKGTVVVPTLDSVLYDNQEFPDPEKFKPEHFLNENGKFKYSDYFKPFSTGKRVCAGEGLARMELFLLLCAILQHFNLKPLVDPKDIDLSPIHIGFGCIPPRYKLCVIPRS
# Protocol: as §3, §4
# CYP3A4 = CYP3A4 (Homo sapiens (Human), UniProt P08684); test: as above; format: in vitro ADME
# CYP3A4, sequence (P08684 whole entry): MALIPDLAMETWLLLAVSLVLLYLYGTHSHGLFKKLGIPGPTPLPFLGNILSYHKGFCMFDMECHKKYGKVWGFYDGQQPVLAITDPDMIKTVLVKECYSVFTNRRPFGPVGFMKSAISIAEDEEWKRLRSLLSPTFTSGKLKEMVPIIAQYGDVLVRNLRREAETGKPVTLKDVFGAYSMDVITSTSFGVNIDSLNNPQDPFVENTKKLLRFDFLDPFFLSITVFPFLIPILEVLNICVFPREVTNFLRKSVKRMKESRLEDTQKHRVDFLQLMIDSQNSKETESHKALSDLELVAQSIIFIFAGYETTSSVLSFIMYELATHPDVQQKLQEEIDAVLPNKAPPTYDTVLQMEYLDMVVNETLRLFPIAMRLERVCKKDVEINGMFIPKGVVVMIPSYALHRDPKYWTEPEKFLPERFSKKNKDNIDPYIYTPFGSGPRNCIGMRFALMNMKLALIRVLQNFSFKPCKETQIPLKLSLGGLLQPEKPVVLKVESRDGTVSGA
# Protocol: as §3, §4
# hERG potassium channel = hERG potassium channel (Homo sapiens (Human), UniProt Q12809); test: biochemical
# hERG potassium channel, sequence (Q12809 whole entry): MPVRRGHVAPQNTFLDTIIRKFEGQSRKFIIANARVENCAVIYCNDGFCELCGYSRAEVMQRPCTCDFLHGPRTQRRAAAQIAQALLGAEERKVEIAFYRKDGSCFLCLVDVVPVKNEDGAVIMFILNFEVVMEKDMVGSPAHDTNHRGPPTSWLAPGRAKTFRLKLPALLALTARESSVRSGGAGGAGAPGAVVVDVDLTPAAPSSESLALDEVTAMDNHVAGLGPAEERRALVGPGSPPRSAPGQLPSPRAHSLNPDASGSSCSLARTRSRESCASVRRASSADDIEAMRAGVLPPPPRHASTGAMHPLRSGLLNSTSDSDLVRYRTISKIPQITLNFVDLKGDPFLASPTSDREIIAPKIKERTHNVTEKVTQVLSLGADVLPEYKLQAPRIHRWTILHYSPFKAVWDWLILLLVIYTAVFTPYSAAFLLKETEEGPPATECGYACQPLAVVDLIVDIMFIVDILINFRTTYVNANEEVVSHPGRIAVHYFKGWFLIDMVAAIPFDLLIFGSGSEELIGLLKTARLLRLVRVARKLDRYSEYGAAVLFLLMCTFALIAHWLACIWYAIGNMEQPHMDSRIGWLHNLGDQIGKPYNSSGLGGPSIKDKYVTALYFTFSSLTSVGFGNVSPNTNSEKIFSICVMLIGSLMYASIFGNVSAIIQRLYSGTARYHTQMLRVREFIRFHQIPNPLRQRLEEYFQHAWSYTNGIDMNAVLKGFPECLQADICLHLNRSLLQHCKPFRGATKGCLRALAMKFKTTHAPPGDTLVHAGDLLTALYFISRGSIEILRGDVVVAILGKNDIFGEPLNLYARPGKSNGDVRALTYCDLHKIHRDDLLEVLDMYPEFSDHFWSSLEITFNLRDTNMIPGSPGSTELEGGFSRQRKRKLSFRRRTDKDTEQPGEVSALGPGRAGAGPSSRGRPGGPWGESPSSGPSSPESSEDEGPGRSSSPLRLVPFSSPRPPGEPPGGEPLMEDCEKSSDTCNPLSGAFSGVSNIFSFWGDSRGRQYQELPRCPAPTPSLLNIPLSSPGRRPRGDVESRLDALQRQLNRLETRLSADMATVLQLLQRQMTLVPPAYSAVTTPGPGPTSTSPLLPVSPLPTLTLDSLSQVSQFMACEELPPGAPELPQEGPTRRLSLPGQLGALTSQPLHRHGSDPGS
# Excerpt: The assay is based on the assumption that the hERG potassium channel activity contributes to the resting membrane potential in permanently transfected cells, and thus a block of hERG channels should result in a depolarization of the cell membrane. The assay is designed to identify potential hERG channel blockers by producing data that accurately correlates with patch-clamp electrophysiology studies.
# Membrane preparations from Chinese hamster ovary cells stably transfected with hERG potassium channel are used to evaluate the potential inhibitory effect of a compound of the invention on this channel using the Predictor™ fluorescence polarization assay. Reduction of membrane polarization as a result of inhibition of the hERG potassium channel is directly correlated with a reduction of the fluorescence polarization (FP).
# An assay window more than 100 mP (millipolarization) is considered good. The non-linear regression curves are obtained by GraphPad Prism (GraphPad Software Inc.) analysis, to calculate the IC50 values.
# [8] = Critical micellar concentration; format: physicochemical; details: determined in […] NaCl water solution
# Protocol: (§5) Physiochemical properties of a compound of the invention such as water solubility, critical micellar concentration, surface tension, and LogPA were determined using methods known in the art.
# [9] = 1-octanol-water partition coefficient of ionized species; format: physicochemical
# Protocol: as §5
structure (smiles),measurement,setting,value
"C[C@H](CCC(=O)O)[C@H]1CC[C@H]2[C@@H]3CC[C@@H]4C[C@H](O)CC[C@]4(C)[C@H]3CC[C@]12C [LCA, lithocholic acid, reference compound]",EC50,HepG2 cells [1]; Homo sapiens,75 ± 5 µM
same,CC50,[2],100 ± 5 µM
"CC[C@H]1[C@@H](O)C2C3CC[C@H]([C@H](C)Cc4nc(=O)o[nH]4)[C@@]3(C)C[C@H](O)C2[C@@]2(C)CC[C@@H](O)C[C@@H]12 (stereo partly drawn) [Compound 6, 3α,7α,11β-trihydroxy-6α-ethyl-22-(1,2,4-oxadiazol-5-oxo-3-yl)-23,24-bisnor-5β-cholane]",HTR-FRET (cAMP) Human TGR5 EC50,hTGR5 [3],No activity
same,hTGR5 CHO EC50,hTGR5 [4],No activity
same,mTGR5 CHO EC50,mTGR5,No activity
same,rTGR5 CHO EC50,rTGR5,No activity
same,EC50,dTGR5,1.5 ± 0.3 µM
same,"Activation of nuclear receptor panel, agonist mode","[5]; agonist mode, dose response to 200 μM",Neither compound activated any of the receptors
same,"Activity on nuclear receptor panel, antagonist mode","[5]; antagonist mode, fixed concentration at 10 μM",Neither compound activated any of the receptors
same,"Modulation of FXR target genes BSEP, SHP, OSTβ and CYP7A1",[6],significantly bind to FXR in hepatic cells modulating FXR target genes
same,ATP Content EC50,HepG2 cells [1],No toxicity
same,Membrane Integrity (LDH measure) LC50,HepG2 cells [7],No toxicity
same,IC50,CYP1A2,> 10 µM
same,IC50,CYP2C19,> 10 µM
same,IC50,CYP2C9,> 10 µM
same,IC50,CYP2D6,> 10 µM
same,IC50,CYP2E1,> 10 µM
same,IC50,"CYP3A4; Blue substrate, read-out: CYP3A4 (Blue substrate) IC50",> 10 µM
same,IC50,"CYP3A4; Green substrate, read-out: CYP3A4 (Green substrate) IC50",> 10 µM
same,IC50,hERG potassium channel,> 100 µM
same,hERG potassium channel inhibition (in words),hERG potassium channel,"Compounds L1, 3, 5, 6 and 7 did not inhibit hERG potassium channel."
same,CMC: Critical Micellar Concentration,[8],28 mM
same,LogPA−: 1-octanol-water partition coefficient as ionized species,[9],1.7
